{"source": "patent US3954793A", "about": "“1-(2-Propynyl)-1 H-indazole compounds” (priority 1973, dated 1976)", "key": {"[1]": {"system": "Wilson strain house flies", "assay_type": "in vivo, Wilson strain (susceptible)", "protocol": "The required solutions of the insecticide and of the synergist compound were prepared in acetone at a concentration of 1 milligram per milliliter. One-pint wide mouth glass jars were coated with the appropriate insecticide-synergist combination by rolling the jars containing aliquots of the appropriate solutions diluted to three milliliters with acetone to deposit, by evaporation, a film of the test materials. The flies were transferred under carbon dioxide anesthesia and held in the jar at room temperature. Perforated aluminum foil was used to cover the jars and to hold cotton saturated with 10% sugar solution. Counts were made at intervals, but the recorded mortality was based on 24-hour kill, rather than knockdown. All prostrate non-moving flies were considered dead. A determination was then made of the contact synergistic ratio [SR], which is the ratio of the LC50 of insecticide alone to the LC50 of the insecticide when applied together with the synergist. The LC50 of the insecticide was estimated from a log-probit plot of percent kill versus dosage. […] The LC50 of the combination of insecticide and synergist was determined at a synergist to insecticide parts by weight ratio of five to one."}, "[2]": {"system": "polyvalent resistant (CH strain) houseflies", "assay": "whole plant or invertebrate", "assay_type": "in vivo", "protocol": "The effect of O-(2-propynyl) oximes with Dimetilan and with GS 13798 was obtained from tests on polyvalent resistant (CH strain) houseflies that had been chilled and to the dorsal region of which was applied an acetone solution of synergist and insecticide at a ratio of two to one. Duplicate tests were performed using 10 four to five-day old female houseflies per test. After dosage, the flies were put in a plastic petri dish with cotton soaked in a sugar-water solution. These doses of insecticide used without synergist caused 10-40% mortality.\nIn Table IX, and in the tables following it, the doses of topically applied insecticides and of synergists unless otherwise noted are expressed as micrograms per fly (μg/fly).\nThe effect of compounds II-C, II-D and II-E with Dimetilan and GS 13798 was determined, following the procedure of Example 5, from tests on polyvalent resistant (CH strain) houseflies. These doses of insecticide used without synergist caused 10-40% mortality.\nThe synergistic effect with GS 13005 of compounds I-A, I-B, I-D, I-E, I-F, I-G and I-I was determined from topical application tests to IN/WHO strain, Rutgers A strain and polyvalent CH strain houseflies using the procedures of Example 5. The percent kills of the IN/WHO strain flies after 24 hours are shown in Table XXVIII; of the Rutgers A strain, in Table XXIX; and of the polyvalent CH strain, in Table XXX. The doses of insecticide alone to the CH strain files caused 10-40% mortality.\nThe synergistic effect with Diazinon and GS 13005 of various of the benzyl 2-propynyl ethers identified in Tables II and IIa was determined by topical application tests on IN/WHO strain, and Rutgers A strain and polyvalent, resistant, CH strain houseflies using the procedures of Example 5. The percent kills after 24 hours of IN/WHO strain flies are shown in Table XXXI; of Rutgers A strain flies, in Table XXXII; and of CH strain flies, in Table XXXIII. The doses of insecticide alone to the CH strain flies caused 10-40% mortality.\nThe synergistic effect with pyrethrum of various synergist compounds was determined by topical application tests on polyvalent, resistant CH strain houseflies following the procedure of Example 5. Application of the insecticide alone caused 10-40% mortality."}, "houseflies": {"system": "houseflies", "assay": "topical application with Diazinon, Table XXVII (strain not given)", "assay_type": "in vivo"}, "[3]": {"system": "IN/WHO strain house flies", "assay": "topical application, percent kill after 24 hours, susceptible IN/WHO strain", "assay_type": "in vivo, female)", "procedure,_shortened": "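Insecticide plus synergist in acetone, 1.0 μl applied to the thorax of CO2-anesthetized 3-to-5-day-old female IN/WHO house flies, doses in μg/fly. Flies held 10 per dish, 3-5 dishes per treatment, with skim milk. Percent mortality scored after 24 h.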"}, "[4]": {"system": "Rutgers A strain house flies", "assay": "topical application, percent kill after 24 hours, resistant Rutgers A strain", "assay_type": "in vivo, female)", "procedure,_shortened": "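Synergist plus mobam, Diazinon or GS 13005 dissolved in acetone, applied as 1.0 μl to the thorax of CO2-anaesthetised 3-to-5 day old female Rutgers A (resistant) house flies; doses in μg/fly. Flies held 10 per dish, 3-5 dishes per treatment, with skim milk; mortality scored at 24 h.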"}, "[5]": {"system": "German male cockroaches (Blatella Germanicus)", "assay": "topical application to thorax, 24 hour mortality of German male cockroaches", "assay_type": "in vivo", "conditions": "cockroaches", "protocol": "The synergistic effect with mobam of synergist compounds I-B, II-H, II-K and IV-C is further illustrated by the 24 hour mortality data of German male cockroaches (Blatella Germanicus) shown in Table XXXX. The synergists and insecticide were diluted in acetone and applied in small droplets to the thorax of the insect. These doses of synergist alone gave zero percent insect mortality.\nThe synergistic effect with GS 13005 of compounds I-B, II-H, II-K, II-P, II-Q, II-R and IV-C is illustrated by the 24 hour mortality of German male cockroaches shown in Table XXXXI. These doses of synergist alone caused zero percent insect mortality."}, "[6]": {"system": "Swiss albino, white male mice", "assay": "acute toxicity and synergism of acute toxicity in mice", "assay_type": "in vivo", "conditions": "GS 13005 (71 mg/kg) in 0.1 ml corn oil", "procedure,_shortened": "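Male Swiss albino mice (23 to 27 g, five to six weeks), eight per dose, dosed intraperitoneally in corn oil: dimetilan alone at 4 to 32 mg per kg, synergists alone at 1000 mg/kg with deaths counted at 72 hours. For synergism, synergist given 1 hour before insecticide, lethality observed for at least 6 hours.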"}}, "note": "Where “and” joins values, the source holds several entries; their conditions need not be identical. Equal values may be shown once.", "data": [{"smiles": "C#CCON=Cc1ccc(OC)c(OC)c1", "note": "[I-A]", "values": [{"measurement": "Contact Synergistic Ratio, Pyrolan", "setting": "[1]; LC50 pyrolan alone / LC50 with synergist, synergist to insecticide 5:1 by weight", "result": 30}, {"measurement": "Contact Synergistic Ratio, Carbaryl", "setting": "[1]; in vivo", "result": 200}, {"measurement": "percent kill after 24 hours, with Dimetilan", "setting": "[2]; Dimetilan 2 + synergist 4 μg/fly, CH strain", "result": 100, "unit": "%"}, {"measurement": "percent kill after 24 hours, with GS 13005", "setting": "[2]; GS 13005 1 + synergist 2 μg/fly, CH strain", "result": 45, "unit": "%"}, {"measurement": "mortality at 10 µg/fly", "setting": "[2]; Musca domestica, topical, 24 h, insecticide 0, synergist 10 μg/fly, CH strain, read-out: percent kill after 24 hours, synergist alone", "result": 0, "unit": "%"}, {"measurement": "percent kill after 24 hours, with pyrethrum", "setting": "[2]; Pyrethrum 2 + synergist 4 μg/fly, CH strain", "result": 15, "unit": "%"}, {"measurement": "percent kill after 24 hours, synergist alone", "setting": "[2]; insecticide 0, synergist 10 μg/fly, CH strain", "result": 0, "unit": "%"}, {"measurement": "percent kill after 24 hours, with Diazinon (Table XXVII)", "setting": "houseflies; Diazinon 5 + synergist 10 μg/fly", "result": 45, "unit": "%"}, {"measurement": "mortality at 10 µg/fly", "setting": "houseflies; Musca domestica, topical, 24 h, Diazinon 0, synergist 10 μg/fly, read-out: percent kill after 24 hours, synergist alone (Table XXVII)", "result": 0, "unit": "%"}]}, {"smiles": "CNC(=O)Oc1cccc2sccc12", "note": "[Mobam, 4-benzo(b) thienyl-N-methylcarbamate, reference compound]", "values": [{"measurement": "percent mortality 24 hours, Mobam alone", "setting": "[3]; Mobam 0.13 μg/fly alone", "result": 0, "unit": "%"}, {"measurement": "percent mortality 24 hours, Mobam alone", "setting": "[3]; Mobam 0.25 μg/fly alone, 1440 min", "result": 27, "unit": "%"}, {"measurement": "percent mortality 24 hours, Mobam alone", "setting": "[3]; Mobam 0.50 μg/fly alone, 1440 min", "result": 83, "unit": "%"}, {"measurement": "percent mortality 24 hours, Mobam alone", "setting": "[3]; Mobam 1.0 μg/fly alone, 1440 min", "result": 93, "unit": "%"}, {"measurement": "percent kill after 24 hours, Mobam alone", "setting": "[3]; Mobam 0.05, synergist 0 μg/fly", "result": 0, "unit": "%"}, {"measurement": "percent kill after 24 hours, Mobam alone", "setting": "[3]; Mobam 0.10, synergist 0 μg/fly", "result": "zero"}, {"measurement": "percent kill after 24 hours, Mobam alone", "setting": "[3]; Mobam 0.10, synergist 0 μg/fly, 1440 min", "result": 0, "unit": "%"}, {"measurement": "percent kill after 24 hours, Mobam alone", "setting": "[3]; Mobam 0.20, synergist 0 μg/fly, 1440 min", "result": "6% and 2% and 9%"}, {"measurement": "percent kill after 24 hours, Mobam alone", "setting": "[4]; Mobam 0.15, synergist 0 μg/fly", "result": 0, "unit": "%"}, {"measurement": "percent kill after 24 hours, Mobam alone", "setting": "[4]; Mobam 0.30, synergist 0 μg/fly", "result": 0, "unit": "%"}, {"measurement": "percent kill after 24 hours, Mobam alone", "setting": "[4]; Mobam 0.40, synergist 0 μg/fly", "result": 7, "unit": "%"}, {"measurement": "percent kill after 24 hours, Mobam alone", "setting": "[4]; Mobam 0.60, synergist 0 μg/fly", "result": 4, "unit": "%"}, {"measurement": "24 hour mortality, Mobam alone", "setting": "[5]; Mobam dose 0.12, synergist 0", "result": 10, "unit": "%"}, {"measurement": "24 hour mortality, Mobam alone", "setting": "[5]; Mobam dose 0.16, synergist 0", "result": 30, "unit": "%"}]}, {"smiles": "COc1nn(CSP(=S)(OC)OC)c(=O)s1", "note": "[GS 13005, S-((2-methoxy-5-oxo-Δ^2-1,3,4-thiadiazolin-4-yl)methyl) O,O-dimethyl phosphorodithioate, reference compound]", "values": [{"measurement": "mortality, insecticide used without synergist", "setting": "[2]; house fly, in vivo, topical or ocular, 24 h", "result": "10-40%"}, {"measurement": "percent kill after 24 hours, GS 13005 alone", "setting": "[3]; GS 13005 0.05, synergist 0 μg/fly", "result": 0, "unit": "%"}, {"measurement": "percent kill after 24 hours, GS 13005 alone", "setting": "[3]; GS 13005 0.10, synergist 0 μg/fly, 1440 min", "result": "19% and 16% and 12%"}, {"measurement": "24 hour mortality, GS 13005 alone", "setting": "[5]; GS 13005 dose 0.08, synergist 0, 1440 min", "result": "15% and 23% and 10%"}, {"measurement": "number of mice dead, control (GS 13005 alone)", "setting": "[6]", "result": 5}]}]}
